The record followed here is patent US5298502A, “Method and composition for photodynamic treatment and detection of tumors” (priority 1991, dated 1994).

For series [1], the system named is DBA/2 Ha mice with SMT-F subcutaneous tumors. The series can be described thus: Proto IX content of tissues of tumor-bearing mice fed the agent (Example 6). Type of series: in vivo. The method, boiled down:
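DBA/2 Ha mice bearing subcutaneous SMT-F tumors fed mash with 2000 ppm agent on Days 2-10, controls untreated; sacrifice Day 10 (one agent Day 7). Kidney, intestine, adrenal, liver and tumor extracted in acetone-0.1 N NH4OH (9:1); Proto IX by fluorescence (ex 400/em 630 nm) as CPS per g tissue.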

Series [2] can be described thus: LD50, single oral dose, mice. The following applies: mouse, in vivo, single oral dose in corn oil and 5% of the agent, 14-day period.
For series [3], the system named is dark-bleached Chlamydomonas reinhardi mutant y-1. In words: Light-Induced Greening Inhibition Test. To be noted: compounds ionized in water, operative ion negatively charged. In kind it is cell-based. Here is the method:
Another test of the capacity of a material for disrupting the plasmalemma of plant material is the Light-Induced Greening Inhibition Test described more particularly in Appendix B below.
Stock Cultures of y-1 cells are maintained axenically in liquid culture on Medium A or M, preferably on Medium M, in a 14/10 hour light/dark cycle at 25° C. in Erlenmeyer flasks which are stoppered with polyurethane plugs. The stock cultures are incubated without supplemental aeration on rotary shakers at 125 rpm. The light intensity at the culture level is 120 μE m^-2 sec^-1 (PAR). Under these conditions the cultures are in a semi-synchronous mode of growth until they reach a stationary phase of 2-4×10^6 cells/mL.
Cells from the stationary phase of stock cultures grown in the presence of light (7.5 mL) are transferred to 750 mL of Medium A in an Erlenmeyer flask. […]
An aqueous, 10% sodium dodecyl sulfate solution (250 μL) and methanol (1 mL) is added to each test well and is mixed thoroughly. […] The supernatants are removed and analyzed in a Beckman Model 35 spectrophotometer between 350 nm and 500 nm for the presence of protophorphrin IX, at 668 nm which is the absorption peak of chlorophyll in this solvent system, and at 720 nm to use as a turbidity background reading.
For each well a greenness value is obtained by subtracting the 720 nm reading from the 668 nm reading. […]

Series [4] can be described thus: Tolerance of intraperitoneal injection in mice. The following applies: mouse, in vivo, ip, 60% corn oil and 40% DMSO, read-out: tolerated dose. As for the experimental part: c. In tests of the agent injected intraperitoneally in a mixture of 60% corn oil and 40% DMSO it was determined that the mice could tolerate a dose of 100 mg/kg.
Series [5] relates to chondrosarcoma. In words: Photodynamic treatment of chondrosarcoma in rats fed the agent (Example 9). Type of series: in vivo, Sprague-Dawley rats. As for the experimental part:
Specifically, three Sprague-Dawley rats of average weight 120 g were placed on a diet of feed containing 2000 ppm of the agent for a period of 6 days. On day 3, chondrosarcoma was implanted into the right hind limb of each rat by injecting 0.3 mL of a suspension of the tumor cells (about one million tumor cells). On day 6 the right hind limb of each rat was shaven and depilated, the size of each tumor was measured, and the tumor area and surrounding skin were then exposed to non-thermal doses of 630 nm light for a total of 270 J/cm^2.
In another set of experiments, 20 of the rats were placed on the same diet as above (i.e. feed containing 2000 ppm of agent), provided ad libitum, for 10 days before the treatment with the light, and the injection of the tumor cell suspension was made after the animals had been on the diet for 7 days. Such an injection causes the formation of a tumor having a well defined vascular network within 1 to 2 days. At the time of the treatment with light the tumors had diameters of 5-8 mm and were free of evident necrosis.

[6] abbreviates: 2000 ppm in feed Days 2-10, sacrificed Day 10 (6j Day 7).
[7] abbreviates: 20 rats, 2000 ppm in feed for 10 days.

“Also recorded” adds a separate entry of the source. Where only a bound is given, the exact number is not on record here.

What is called LD50 is the dose at which mortality reaches 50%. Lower therefore signals a more toxic substance. `Cc1nn(-c2cc(NS(C)(=O)=O)c(Cl)cc2Cl)c(=O)n1C(F)F` [Agent 6c]: in series [1] (2000 ppm in feed), the “concentration of Proto IX in tissue, Adrenal” value is listed as 126 ug of Proto IX per gram of tis; the “concentration of Proto IX in tissue, Intestine” value is 91 ug of Proto IX per gram of tis; the “concentration of Proto IX in tissue, Kidneys” value is listed as 148 ug of Proto IX per gram of tis; the “concentration of Proto IX in tissue, Liver” value was 25 ug of Proto IX per gram of tis. In addition, the “concentration of Proto IX in tissue, Tumor” value in series [1] (2000 ppm in feed) is recorded as 131 ug of Proto IX per gram of tis. Moreover, in series [1] (setting [6]), the “Proto IX Mean Cps per gram, Adrenal” value was 13790 Cps per gram × 10^3; the “Proto IX Mean Cps per gram, Kidneys” value was found to be 16186 Cps per gram × 10^3; the “Proto IX Mean Cps per gram, Liver” value is reported as 2739 Cps per gram × 10^3; the “Proto IX Mean Cps per gram, Tumor” value came out at 14336 Cps per gram × 10^3. Besides, the “Weight of Tumor as excised” value in series [1] (setting [6]) is 157 mg. Further, the “Proto IX Mean Cps per gram, Intestine” value in series [1] (2000 ppm in feed, samples diluted with 3 parts basic acetone to one part sample) worked out at 9937 Cps per gram × 10^3. For the same compound, in series [2], the LD50 at 336 h was over 700 mg/kg. Moreover, the “response in light-greening inhibition test” value in series [3] is on record as “do not respond well in this test”. Moreover, the MTD in series [4] worked out at 100 mg/kg. Besides, in series [5] (setting [7]), the “tumors that regrew over time” value was about 95% and the “tumors with visible regression on the day following the light treatment” value turned out to be 75%. The “effect on surrounding skin and muscle tissue” value in series [5] (2000 ppm in feed for 6 days, 630 nm light 270 J/cm^2) is “slightly blanched and showed some swelling”. Also, the “occlusion of blood flow to the treatment area” value in series [5] (sodium fluoroscin injection immediately after exposure to light) was “did not cause apparent occlusion of blood flow”. The “tumor regression on the day after light treatment” value in series [5] (three rats, 2000 ppm in feed for 6 days, 630 nm light 270 J/cm^2) is given as “two of the rats were found to be apparently free of their tumors; also recorded: the third rat showed almost complete regression of its tumor”.
